ChEMBL document CHEMBL1201862, “PubChem BioAssay data set” (2004)
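Step 1: Grow cells in 96-well plates. Step 2: Expose to compound for 48 hours at 5 concentrations. Step 3: Interpolate endpoints linearly; if unreached, use highest concentration. Abbreviation: GI50, concentration required for 50% inhibition of growth.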 Activity calls are given as the source filed them. Rule as the data show it: active = GI50 up to about 1.1 µM and inactive = higher.

What was measured:
Assay in all cases: NCI anticancer screen, dose series, 48 h
SNB-75 = tested on: SNB-75
UACC-62 = tested on: UACC-62
RPMI-8226 = tested on: RPMI-8226
CAKI-1 = tested on: CAKI-1
MDA-N = tested on: MDA-N
SN12C = tested on: SN12C
PC-3 = tested on: PC-3
HOP-62 = tested on: HOP-62
TK-10 = tested on: TK-10
SF-539 = tested on: SF-539
M14 = tested on: M14
SK-OV-3 = tested on: SK-OV-3
NCI/ADR-RES = tested on: NCI/ADR-RES
DU-145 = tested on: DU-145
UO-31 = tested on: UO-31
HCT-15 = tested on: HCT-15
ACHN = tested on: ACHN
K562 = tested on: K562
NCI-H23 = tested on: NCI-H23
NCI-H522 = tested on: NCI-H522

| SMILES | GI50 (SNB-75) | GI50 (UACC-62) | GI50 (RPMI-8226) | GI50 (CAKI-1) | GI50 (MDA-N) | GI50 (SN12C) | GI50 (PC-3) | GI50 (HOP-62) | GI50 (TK-10) | GI50 (SF-539) | GI50 (M14) | GI50 (SK-OV-3) | GI50 (NCI/ADR-RES) | GI50 (DU-145) | GI50 (UO-31) | GI50 (HCT-15) [µM] | GI50 (ACHN) | GI50 (K562) | GI50 (NCI-H23) | GI50 (NCI-H522) |
| --- | --- | --- | --- | --- | --- | --- | --- | --- | --- | --- | --- | --- | --- | --- | --- | --- | --- | --- | --- | --- |
| CN1c2ccc(Cl)cc2C(=O)NC1c1ccc([N+](=O)[O-])s1 (stereo not given) | 12 µM (inactive) | 11.4 µM (inactive) | 6.19 µM (inactive) | 15.1 µM (inactive) | 16.2 µM (inactive) | 16.6 µM (inactive) | 16 µM (inactive) | 18.5 µM (inactive) | 20.2 µM (inactive) | 18.1 µM (inactive) | 15.6 µM (inactive) | 20.2 µM (inactive) | 15.3 µM (inactive) | 19.3 µM (inactive) | 12.1 µM (inactive) | 12.7 | 19.4 µM (inactive) | 13.3 µM (inactive) |  |  |
| CC1S/C(=N\N=C2/C(=O)Nc3ccc(Br)cc32)N(C2CCCCC2)C1=O (stereo not given) |  | 2.01 µM (inactive) | 16.8 µM (inactive) | 1.8 µM (inactive) | 12.1 µM (inactive) | 2.93 µM (inactive) | 5.36 µM (inactive) | 2.09 µM (inactive) | 1.15 µM (inactive) | 3.66 µM (inactive) | 4.29 µM (inactive) | 2.84 µM (inactive) | 3.4 µM (inactive) | 3.73 µM (inactive) | 1.06 µM (active) | 3.87 | 1.16 µM (inactive) | > 100 µM (inactive) | 4.42 µM (inactive) |  |
| CC(=O)NCCCCN(CCCNC(C)=O)C(=O)CNS(=O)(=O)c1cccc2c(N(C)C)cccc12 |  | > 100 µM (inactive) | > 100 µM (inactive) |  | > 100 µM (inactive) | > 100 µM (inactive) | > 100 µM (inactive) | > 100 µM (inactive) | > 100 µM (inactive) | > 100 µM (inactive) | > 100 µM (inactive) | > 100 µM (inactive) |  | > 100 µM (inactive) | > 100 µM (inactive) | > 100 | > 100 µM (inactive) | > 100 µM (inactive) | > 100 µM (inactive) | > 100 µM (inactive) |
| CC1=CC(c2ccccc2)n2c(nc3cc4ccccc4cc32)N1 (stereo not given) | > 100 µM (inactive) | > 100 µM (inactive) | > 100 µM (inactive) | > 100 µM (inactive) | > 100 µM (inactive) |  | > 100 µM (inactive) |  | > 100 µM (inactive) | > 100 µM (inactive) | > 100 µM (inactive) | > 100 µM (inactive) | > 100 µM (inactive) | > 100 µM (inactive) | > 100 µM (inactive) | > 100 | > 100 µM (inactive) | > 100 µM (inactive) | > 100 µM (inactive) |  |
| CSc1ncc2c(n1)C(C#N)C1Sc3ccccc3N1C2=O (stereo not given) | 22.9 µM (inactive) |  | > 100 µM (inactive) | > 100 µM (inactive) | > 100 µM (inactive) | > 100 µM (inactive) |  | 37.5 µM (inactive) | 90.4 µM (inactive) | 37.3 µM (inactive) | > 100 µM (inactive) | > 100 µM (inactive) | > 100 µM (inactive) | > 100 µM (inactive) | > 100 µM (inactive) | > 100 | 59.4 µM (inactive) |  | 78 µM (inactive) | 62.2 µM (inactive) |
| Cc1ccc(C)n2c1nc1ccc3ccccc3c12 | 17.3 µM (inactive) | 53.2 µM (inactive) | > 100 µM (inactive) |  | > 100 µM (inactive) | > 100 µM (inactive) | 67.9 µM (inactive) | > 100 µM (inactive) | > 100 µM (inactive) | > 100 µM (inactive) | > 100 µM (inactive) | > 100 µM (inactive) | > 100 µM (inactive) | > 100 µM (inactive) | 61 µM (inactive) | > 100 | > 100 µM (inactive) | > 100 µM (inactive) | > 100 µM (inactive) |  |
| COP1(=O)NCc2ncccc2O1 (stereo not given) | > 100 µM (inactive) | > 100 µM (inactive) | > 100 µM (inactive) | > 100 µM (inactive) | > 100 µM (inactive) | > 100 µM (inactive) | > 100 µM (inactive) | > 100 µM (inactive) |  | > 100 µM (inactive) | > 100 µM (inactive) |  | > 100 µM (inactive) | > 100 µM (inactive) | > 100 µM (inactive) | > 100 | > 100 µM (inactive) | > 100 µM (inactive) | > 100 µM (inactive) |  |
| O=C1CN(c2ccc(Cl)cc2)C(=O)CN1CCN1CC(=O)N(c2ccc(Cl)cc2)CC1=O | > 100 µM (inactive) | > 100 µM (inactive) | > 100 µM (inactive) | > 100 µM (inactive) | > 100 µM (inactive) | > 100 µM (inactive) | > 100 µM (inactive) | > 100 µM (inactive) | > 100 µM (inactive) |  | > 100 µM (inactive) | > 100 µM (inactive) |  | > 100 µM (inactive) | > 100 µM (inactive) | > 100 | > 100 µM (inactive) |  | > 100 µM (inactive) | > 100 µM (inactive) |
| CCN(CC)CCn1nc(N)c2nc3ccccc3nc21 | 39.9 µM (inactive) | > 100 µM (inactive) | > 100 µM (inactive) | 72.6 µM (inactive) | > 100 µM (inactive) | > 100 µM (inactive) | > 100 µM (inactive) | > 100 µM (inactive) | > 100 µM (inactive) | > 100 µM (inactive) | > 100 µM (inactive) | > 100 µM (inactive) | > 100 µM (inactive) |  | > 100 µM (inactive) | > 100 | > 100 µM (inactive) | > 100 µM (inactive) | > 100 µM (inactive) | 96.4 µM (inactive) |
| OCC(O)COCn1nncc1Cn1ncc2c(SCc3ccccc3)ncnc21 (stereo not given) |  | > 100 µM (inactive) |  | > 100 µM (inactive) | > 100 µM (inactive) | > 100 µM (inactive) | > 100 µM (inactive) | > 100 µM (inactive) | > 100 µM (inactive) | > 100 µM (inactive) | > 100 µM (inactive) | > 100 µM (inactive) | > 100 µM (inactive) | > 100 µM (inactive) | > 100 µM (inactive) | > 100 | > 100 µM (inactive) |  | > 100 µM (inactive) | 8.89 µM (inactive) |
| CCCCCCCCCCCCCCCCCCNC(=S)N/C=C1\C(=O)Nc2ccccc2C1=O | 13.2 µM (inactive) |  |  | 16.9 µM (inactive) | 17.4 µM (inactive) | 22.4 µM (inactive) |  | 15.6 µM (inactive) | 23.3 µM (inactive) | 19.7 µM (inactive) | 18.3 µM (inactive) | 19.2 µM (inactive) | 18.4 µM (inactive) | 16 µM (inactive) | 15.5 µM (inactive) | 15.6 | 16.4 µM (inactive) |  | 18.9 µM (inactive) |  |
| O=[N+]([O-])c1ccc(SN=S=NSc2cccc(SN=S=NSc3ccc([N+](=O)[O-])cc3)c2)cc1 |  | 37.8 µM (inactive) | 27.7 µM (inactive) | 19 µM (inactive) | 30.8 µM (inactive) | 12.4 µM (inactive) | 16.6 µM (inactive) | 48.8 µM (inactive) |  |  | 37 µM (inactive) | > 100 µM (inactive) | 28 µM (inactive) |  | 23.8 µM (inactive) | 17.7 | 42.3 µM (inactive) | 25.2 µM (inactive) |  | 15.8 µM (inactive) |
| O=C(NNc1cn[nH]c(=O)n1)c1cccc2nc3ccccc3nc12 |  | 61.5 µM (inactive) | > 100 µM (inactive) | 46.6 µM (inactive) | > 100 µM (inactive) | 60.1 µM (inactive) | > 100 µM (inactive) |  | 24.3 µM (inactive) | 46.7 µM (inactive) | > 100 µM (inactive) | 33.4 µM (inactive) | > 100 µM (inactive) | 85.3 µM (inactive) |  | > 100 | 23.3 µM (inactive) | 47.9 µM (inactive) | 45.6 µM (inactive) |  |
| COc1ccccc1NC(=O)C(=O)Cc1cnc2ccccc2n1 | 41 µM (inactive) | > 100 µM (inactive) | > 100 µM (inactive) | > 100 µM (inactive) | > 100 µM (inactive) | > 100 µM (inactive) | > 100 µM (inactive) |  |  | > 100 µM (inactive) | > 100 µM (inactive) | > 100 µM (inactive) | > 100 µM (inactive) | > 100 µM (inactive) | > 100 µM (inactive) | > 100 | > 100 µM (inactive) | > 100 µM (inactive) | > 100 µM (inactive) |  |
| Cc1cc(Br)cc(C)c1NC(=O)C(=O)Nn1c(S)nc2ccccc2c1=O | > 100 µM (inactive) | > 100 µM (inactive) | > 100 µM (inactive) | > 100 µM (inactive) | > 100 µM (inactive) | > 100 µM (inactive) | > 100 µM (inactive) | > 100 µM (inactive) | > 100 µM (inactive) | > 100 µM (inactive) | > 100 µM (inactive) | > 100 µM (inactive) | > 100 µM (inactive) |  | > 100 µM (inactive) | > 100 | > 100 µM (inactive) | > 100 µM (inactive) | > 100 µM (inactive) | > 100 µM (inactive) |
| ClC1(Cl)C(c2ccccc2)C1c1ccccc1 (stereo not given) | 46 µM (inactive) | 29.5 µM (inactive) | 24.4 µM (inactive) | 30 µM (inactive) | 5.32 µM (inactive) | 39.4 µM (inactive) | 62.2 µM (inactive) | 23.2 µM (inactive) | 54 µM (inactive) |  | 27.7 µM (inactive) | 18.8 µM (inactive) | 7.16 µM (inactive) | 42.2 µM (inactive) | 26.9 µM (inactive) | 21.6 | 25.6 µM (inactive) | 9.68 µM (inactive) | 24.6 µM (inactive) |  |
